Biological target: T1, mAChR M4 (UniProt P08173)
T1 construct: hM1 and hM4 cDNAs were purchased from Missouri S&T cDNA Resource
T1 sequence (P08173 1-479): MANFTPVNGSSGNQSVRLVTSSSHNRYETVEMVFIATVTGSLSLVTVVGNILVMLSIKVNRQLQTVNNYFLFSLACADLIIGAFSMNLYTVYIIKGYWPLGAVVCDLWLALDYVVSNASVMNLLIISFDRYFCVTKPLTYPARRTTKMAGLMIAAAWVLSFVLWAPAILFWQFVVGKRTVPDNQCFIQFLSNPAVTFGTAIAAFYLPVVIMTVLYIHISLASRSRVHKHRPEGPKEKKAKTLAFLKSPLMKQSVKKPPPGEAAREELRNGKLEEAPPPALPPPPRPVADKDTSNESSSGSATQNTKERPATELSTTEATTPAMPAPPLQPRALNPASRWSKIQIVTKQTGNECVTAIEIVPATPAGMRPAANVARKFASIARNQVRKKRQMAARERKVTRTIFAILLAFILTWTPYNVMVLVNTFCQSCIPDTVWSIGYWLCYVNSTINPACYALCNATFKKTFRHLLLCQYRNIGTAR
Test: mAChR M4 cell-based functional assay (calcium mobilization, Fluo-4, FDSS)
Details: for Emax (%)*: % ACh maximum at 30 μM; for pEC50: positive allosteric modulator activity, EC20 acetylcholine response; for pEC50 / EC50: CHO-K1 cells; for EC50: positive allosteric modulator activity: concentration-dependent increase in the EC20 acetylcholine response, >10 μM estimated for low potency (no plateau)
Source text: Chinese hamster ovary (CHO-K1) cells stably expressing rat (r)M1 were purchased from the American Type Culture Collection and cultured according to their indicated protocol. CHO cells stably expressing human (h)M2, hM3, and hM5 were described previously (Levey A I, et al., (1991) J Neurosci 11:3218-3226.); hM1 and hM4 cDNAs were purchased from Missouri S&T cDNA Resource; rM4 cDNA was provided by T. I. Bonner (National Institutes of Health, Bethesda, Md.). rM2 and rM3 were cloned from a rat brain cDNA library and sequence verified. hM1, rM2, rM3, hM4, and rM4 cDNAs were used to stably transfect CHO-K1 cells purchased from the American Type Culture Collection using Lipofectamine-2000. To make stable rM2, hM2, rM3, hM4, and rM4 cell lines for use in calcium mobilization assays, these cells also were stably transfected with a chimeric G-protein (Gqi5) (provided by B. R. Conklin, University of California, San Francisco) using Lipofectamine 2000. rM1, hM1, rM3, hM3, rM5, and hM5 cells were grown in Ham's F-12 medium containing 10% heat-inactivated fetal bovine serum (FBS), 20 mM HEPES, and 50 µg/mL G418 sulfate. rM2-Gqi5, hM2-Gqi5, and hM4-Gqi5 cells were grown in the same medium also containing 500 µg/mL Hygromycin B. Stable rM4-Gqi5 cells were grown in DMEM containing 10% heat-inactivated FBS, 20 mM HEPES, 400 µg/mL G418 sulfate, and 500 µg/mL Hygromycin B.
For high throughput measurement of agonist-evoked increases in intracellular calcium, CHO-K1 cells stably expressing the target muscarinic receptor were plated in growth medium lacking G418 and hygromycin at 15,000 cells/20 μL/well in Greiner 384-well black-walled, tissue culture (TC)-treated, clear-bottom plates (VWR). Cells were incubated overnight at 37° C. and 5% CO2. The next day, cells were washed using an ELX 405 (BioTek) with four washes (80 μL) of assay buffer then aspirated to 20 μL. Next, […] of 16 μM Fluo-4/acetoxymethyl ester (Invitrogen, Carlsbad, Calif.) prepared as a 2.3 mM stock in DMSO and mixed in a 1:1 ratio with 10% (w/v) Pluronic F-127 and diluted in assay buffer was added to the wells and the cell plates were incubated for 50 min at 37° C. and 5% CO2. Dye was removed by washing with the ELX 405 (four 80 μL washes of assay buffer) then aspirated to 20 μL. Compound master plates were formatted in an 11 point CRC format (1:3 dilutions) in 100% DMSO with a starting concentration of 10 mM using the BRAVO liquid handler (Agilent). Test compound CRCs were then transferred to daughter plates (240 nL) using the Echo acoustic plate reformatter (Labcyte, Sunnyvale, Calif.) and then diluted into assay buffer (40 μL) to a 2× stock using a Thermo Fisher Combi (Thermo Fisher Scientific, Waltham, Mass.).
Calcium flux was measured using the Functional Drug Screening System (FDSS) 6000 (Hamamatsu Corporation, Tokyo, Japan) as an increase in the fluorescent static ratio. Compounds were applied to cells (20 μL, 2×) using the automated system of the FDSS 6000 at 4 s into the 300 s protocol and the data were collected at 1 Hz. At 144 s into the 300 s protocol, 10 μL of an EC20 concentration of the muscarinic receptor agonist acetylcholine was added (5×), followed by the addition of 12 μL an EC80 concentration of acetylcholine at the 230 s time point (5×). Agonist activity was analyzed as a concentration-dependent increase in calcium mobilization upon compound addition. Positive allosteric modulator activity was analyzed as a concentration-dependent increase in the EC20 acetylcholine response. Antagonist activity was analyzed as a concentration-dependent decrease in the EC80 acetylcholine response. Concentration-response curves were generated using a four-parameter logistical equation in XLfit curve fitting software (IDBS, Bridgewater, N.J.) for Excel (Microsoft, Redmond, Wash.) or Prism (GraphPad Software, Inc., San Diego, Calif.). […]

| SMILES | Emax (%)* | pEC50 | EC50 |
| --- | --- | --- | --- |
| Cc1cc(C)c2c(n1)sc1c(N)n[nH]c12 [Compound 1, 6,8-dimethyl-1H-pyrazolo[3′,4′:4,5]thieno[2,3-b]pyridin-3-amine] | 27% | <5.00 | > 10 µM |
| Cc1cc(C)c2c(n1)sc1c(NC(=O)C3CC3)n[nH]c12 [Compound 2, N-(6,8-dimethyl-1H-pyrazolo[3′,4′:4,5]thieno[2,3-b]pyridin-3-yl)cyclopropanecarboxamide] | 36% | 5.42 | 3.84 µM |
| Cc1cc(C)c2c(n1)sc1c(NCCC(C)C)n[nH]c12 [Compound 3, N-isopentyl-6,8-dimethyl-1H-pyrazolo[3′,4′:4,5]thieno[2,3-b]pyridin-3-amine] | 46% | 5.91 | 1.24 µM |
| Cc1cc(C)c2c(n1)sc1c(NCc3ccc(F)cc3)n[nH]c12 [Compound 4, N-(4-fluorobenzyl)-6,8-dimethyl-1H-pyrazolo[3′,4′:4,5]thieno[2,3-b]pyridin-3-amine] | 54% | 5.99 | 1.03 µM |
| Cc1cc(C)c2c(n1)sc1c(NCc3ccccc3)n[nH]c12 [Compound 5, N-benzyl-6,8-dimethyl-1H-pyrazolo[3′,4′:4,5]thieno[2,3-b]pyridin-3-amine] | 58% | 5.97 | 1.07 µM |
| COc1ccc(CNc2n[nH]c3c2sc2nc(C)cc(C)c23)cc1 [Compound 6, N-(4-methoxybenzyl)-6,8-dimethyl-1H-pyrazolo[3′,4′:4,5]thieno[2,3-b]pyridin-3-amine] | 58% | 5.94 | 1.15 µM |
| Cc1cc(C)c2c(n1)sc1c(NCC3CC3)n[nH]c12 [Compound 7, N-(cyclopropylmethyl)-6,8-dimethyl-1H-pyrazolo[3′,4′:4,5]thieno[2,3-b]pyridin-3-amine] | 68% | 5.90 | 1.26 µM |
| Cc1cc(C)c2c(n1)sc1c(NCC3CC3)nn(C(=O)OC(C)(C)C)c12 [Compound 8, tert-butyl 3-((cyclopropylmethyl)amino)-6,8-dimethyl-1H-pyrazolo[3′,4′:4,5]thieno[2,3-b]pyridine-1-carboxylate] | 61% | 5.62 | 2.41 µM |
| Cc1cc(C)c2c(n1)sc1c(NCc3ccccc3F)n[nH]c12 [Compound 9, N-(2-fluorobenzyl)-6,8-dimethyl-1H-pyrazolo[3′,4′:4,5]thieno[2,3-b]pyridin-3-amine] | 43% | 5.98 | 1.05 µM |
| Cc1cc(C)c2c(n1)sc1c(NC3CCCC3)n[nH]c12 [Compound 10, N-cyclopentyl-6,8-dimethyl-1H-pyrazolo[3′,4′:4,5]thieno[2,3-b]pyridin-3-amine] | 55% | 5.76 | 1.74 µM |
| Cc1cc(C)c2c(n1)sc1c(NC(C)C)n[nH]c12 [Compound 11, N-isopropyl-6,8-dimethyl-1H-pyrazolo[3′,4′:4,5]thieno[2,3-b]pyridin-3-amine] | 59% | 5.62 | 2.41 µM |
| Cc1cc(C)c2c(n1)sc1c(NC3CCSCC3)n[nH]c12 [Compound 12, 6,8-dimethyl-N-(tetrahydro-2H-thiopyran-4-yl)-1H-pyrazolo[3′,4′:4,5]thieno[2,3-b]pyridin-3-amine] | 38% | 5.36 | 4.39 µM |
| Cc1cc(C)c2c(n1)sc1c(NC3CCOCC3)n[nH]c12 [Compound 13, 6,8-dimethyl-N-(tetrahydro-2H-pyran-4-yl)-1H-pyrazolo[3′,4′:4,5]thieno[2,3-b]pyridin-3-amine] | 37% | 5.14 | 7.32 µM |

The remaining lines, values ahead:

| Emax (%)* | pEC50 | EC50 | SMILES |
| --- | --- | --- | --- |
| 69% | 5.80 | 1.6 µM | Cc1nc2sc3c(NCC4CC4)n[nH]c3c2c(C)c1Cl [Compound 14, 7-chloro-N-(cyclopropylmethyl)-6,8-dimethyl-1H-pyrazolo[3′,4′:4,5]thieno[2,3-b]pyridin-3-amine] |
| 65% | 5.68 | 2.1 µM | CCNc1n[nH]c2c1sc1nc(C)cc(C)c12 [Compound 15, N-ethyl-6,8-dimethyl-1H-pyrazolo[3′,4′:4,5]thieno[2,3-b]pyridin-3-amine] |
| 32% | <5.00 | > 10 µM | Cc1nc2sc3c(NCc4ccccc4)n[nH]c3c2c(C)c1Cl [Compound 16, N-benzyl-7-chloro-6,8-dimethyl-1H-pyrazolo[3′,4′:4,5]thieno[2,3-b]pyridin-3-amine] |
| 39% | <5.00 | > 10 µM | Cc1nc2sc3c(NCc4ccccc4)nn(C)c3c2c(C)c1Cl [Compound 17, N-benzyl-7-chloro-1,6,8-trimethyl-1H-pyrazolo[3′,4′:4,5]thieno[2,3-b]pyridin-3-amine] |
| 51% | <5.00 | > 10 µM | COc1ccc(CNc2nn(C)c3c2sc2nc(C)c(Cl)c(C)c23)cc1 [Compound 18, 7-chloro-N-(4-methoxybenzyl)-1,6,8-trimethyl-1H-pyrazolo[3′,4′:4,5]thieno[2,3-b]pyridin-3-amine] |
| 65% | 6.59 | 0.26 µM | Cc1nc2sc3c(NCC4CC4)nn(C)c3c2c(C)c1Cl [Compound 19, 7-chloro-N-(cyclopropylmethyl)-1,6,8-trimethyl-1H-pyrazolo[3′,4′:4,5]thieno[2,3-b]pyridin-3-amine] |
| 48% | 5.85 | 1.4 µM | Cc1nc2sc3c(NCc4ccco4)n[nH]c3c2c(C)c1Cl [Compound 20, 7-chloro-N-(furan-2-ylmethyl)-6,8-dimethyl-1H-pyrazolo[3′,4′:4,5]thieno[2,3-b]pyridin-3-amine] |
| 39% | <5.00 | > 10 µM | Cc1nc2sc3c(NCc4cccs4)n[nH]c3c2c(C)c1Cl [Compound 21, 7-chloro-6,8-dimethyl-N-(thiophen-2-ylmethyl)-1H-pyrazolo[3′,4′:4,5]thieno[2,3-b]pyridin-3-amine] |
| 57% | <5.00 | > 10 µM | Cc1nc2sc3c(NCc4ccc(F)cc4)nn(C)c3c2c(C)c1Cl [Compound 22, 7-chloro-N-(4-fluorobenzyl)-1,6,8-trimethyl-1H-pyrazolo[3′,4′:4,5]thieno[2,3-b]pyridin-3-amine] |
